In US9827219B2, “Compositions and methods for lowering levels of high-sensitivity C-reactive protein (HS-CRP) in a subject” (priority 2012, dated 2017):

How the values were obtained:
Ox-LDL = test: ANCHOR study, oxidized LDL; assay type: in vivo, human; conditions: ANCHOR ITT, week 12
From the text: Parameters (a)-(y) can be measured in accordance with any clinically acceptable methodology. For example, triglycerides, total cholesterol, HDL-C and fasting blood sugar can be sample from serum and analyzed using standard photometry techniques. VLDL-TG, LDL-C and VLDL-C can be calculated or determined using serum lipoprotein fractionation by preparative ultracentrifugation and subsequent quantitative analysis by refractometry or by analytic ultracentrifugal methodology. Apo A1, Apo B and hsCRP can be determined from serum using standard nephelometry techniques. Lipoprotein (a) can be determined from serum using standard turbidimetric immunoassay techniques. LDL particle number and particle size can be determined using nuclear magnetic resonance (NMR) spectrometry. Remnants lipoproteins and LDL-phospholipase A2 can be determined from EDTA plasma or serum and serum, respectively, using enzymatic immunoseparation techniques. Oxidized LDL, intercellular adhesion molecule-1 and interleukin-2 levels can be determined from serum using standard enzyme immunoassay techniques. These techniques are described in detail in standard textbooks, for example Tietz Fundamentals of Clinical Chemistry, 6th Ed. (Burtis, Ashwood and Borter Eds.), WB Saunders Company. […]

IL-6 = test: MARINE study, IL-6; assay type: in vivo, human; conditions: MARINE ITT, week 12
Procedure: A multi-center, placebo-controlled randomized, double-blind, 12-week study with an open-label extension was performed to evaluate the efficacy and safety of AMR101 in patients with fasting triglyceride levels ≧500 mg/dL. The primary objective of the study was to determine the efficacy of AMR101 2 g daily and 4 g daily, compared to placebo, in lowering fasting TG levels in patients with fasting TG levels ≧500 mg/dL and ≦1500 mg/dL (≧5.65 mmol/L and ≦16.94 mmol/L).
The population for this study was men and women (women of childbearing potential will need to be on contraception or practice abstinence)>18 years of age with a body mass index ≦45 kg/m^2 who were not on lipid-altering therapy or were currently on lipid-altering therapy. Patients currently on statin therapy (with or without ezetimibe) were evaluated by the investigator as to whether this therapy can be safely discontinued at screening, or if it should be continued. If statin therapy (with or without ezetimibe) was to be continued, dose(s) must have been stable for ≧4 weeks prior to randomization. Patients taking non-statin, lipid-altering medications (niacin >200 mg/day, fibrates, fish oil, other products containing omega-3 fatty acids, or other herbal products or dietary supplements with potential lipid-altering effects), either alone or in combination with statin therapy (with or without ezetimibe), must have been able to safely discontinue non-statin, lipid-altering therapy at screening.
Approximately 240 patients were randomized at approximately 50 centers in North America, South America, Central America, Europe, India, and South Africa. The study was a 58- to 60-week, Phase 3, multi-center study consisting of 3 study periods: (1) A 6- to 8-week screening period that included a diet and lifestyle stabilization and washout period and a TG qualifying period; (2) A 12-week, double-blind, randomized, placebo-controlled treatment period; and (3) A 40-week, open-label, extension period.
After confirmation of qualifying fasting TG values, eligible patients entered a 12-week, randomized, double-blind treatment period. At Visit 4 (Week 0), patients were randomly assigned to 1 of the following treatment groups: • AMR101 2 g daily, • AMR101 4 g daily, or • Placebo.
Eligible patients were randomly assigned at Visit 4 (Week 0) to receive orally AMR101 2 g daily, AMR101 4 g daily, or placebo for the 12-week double-blind treatment period. AMR101 was provided in 1 g liquid-filled, oblong, gelatin capsules. The matching placebo capsule was filled with light liquid paraffin and contained 0 g of AMR101. During the double-blind treatment period, patients took 2 capsules (AMR101 or matching placebo) in the morning and 2 in the evening for a total of 4 capsules per day. […]

Compound: CC/C=C\C/C=C\C/C=C\C/C=C\C/C=C\CCCC(=O)OCC [AMR101, all-cis eicosa-5,8,11,14,17-pentaenoic acid ethyl ester]
- Ox-LDL change from baseline (median) (Ox-LDL; 2 g/day): 2.6%
- Ox-LDL change from baseline (median) (Ox-LDL; 4 g/day): −4.8%
- IL-6 change from baseline (median) (IL-6; 2 g/day): 3.4%
- IL-6 end-of-treatment value (median) (IL-6; 2 g/day): 3.0 pg/mL
- IL-6 change from baseline (median) (IL-6; 4 g/day): 0.3%
- IL-6 end-of-treatment value (median) (IL-6; 4 g/day): 2.4 pg/mL
